Experiment in all cases: Kinobeads competition binding, HL60 cell lysate
Set-up in all cases: endogenous in cells
Common to all, as to conditions: 10 μM free compound

One assay concerns the target T1, PHKg2 (Homo sapiens, UniProt P15735).
T1 sequence (P15735 1-406): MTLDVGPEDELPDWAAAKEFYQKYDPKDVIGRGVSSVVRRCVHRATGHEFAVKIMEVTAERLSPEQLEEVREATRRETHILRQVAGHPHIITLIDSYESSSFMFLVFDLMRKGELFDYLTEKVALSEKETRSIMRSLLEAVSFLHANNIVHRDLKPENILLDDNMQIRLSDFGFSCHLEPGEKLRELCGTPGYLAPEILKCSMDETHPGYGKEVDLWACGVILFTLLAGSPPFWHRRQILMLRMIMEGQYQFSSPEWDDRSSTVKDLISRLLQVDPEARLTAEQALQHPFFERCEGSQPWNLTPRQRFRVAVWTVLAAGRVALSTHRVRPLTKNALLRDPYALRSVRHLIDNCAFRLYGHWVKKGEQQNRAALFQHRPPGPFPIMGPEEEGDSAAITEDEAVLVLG
The method, boiled down: (§1)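 Target occupancy is inferred from reduced capture of each kinase on compound-coupled beads after lysate pre-treatment with 10 μM free compound, relative to a DMSO lysate. Quantitation used isobaric iTRAQ tags and tandem MS.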

A further assay addresses T2, IKKe (Homo sapiens, UniProt Q14164).
T2 sequence (Q14164 1-716): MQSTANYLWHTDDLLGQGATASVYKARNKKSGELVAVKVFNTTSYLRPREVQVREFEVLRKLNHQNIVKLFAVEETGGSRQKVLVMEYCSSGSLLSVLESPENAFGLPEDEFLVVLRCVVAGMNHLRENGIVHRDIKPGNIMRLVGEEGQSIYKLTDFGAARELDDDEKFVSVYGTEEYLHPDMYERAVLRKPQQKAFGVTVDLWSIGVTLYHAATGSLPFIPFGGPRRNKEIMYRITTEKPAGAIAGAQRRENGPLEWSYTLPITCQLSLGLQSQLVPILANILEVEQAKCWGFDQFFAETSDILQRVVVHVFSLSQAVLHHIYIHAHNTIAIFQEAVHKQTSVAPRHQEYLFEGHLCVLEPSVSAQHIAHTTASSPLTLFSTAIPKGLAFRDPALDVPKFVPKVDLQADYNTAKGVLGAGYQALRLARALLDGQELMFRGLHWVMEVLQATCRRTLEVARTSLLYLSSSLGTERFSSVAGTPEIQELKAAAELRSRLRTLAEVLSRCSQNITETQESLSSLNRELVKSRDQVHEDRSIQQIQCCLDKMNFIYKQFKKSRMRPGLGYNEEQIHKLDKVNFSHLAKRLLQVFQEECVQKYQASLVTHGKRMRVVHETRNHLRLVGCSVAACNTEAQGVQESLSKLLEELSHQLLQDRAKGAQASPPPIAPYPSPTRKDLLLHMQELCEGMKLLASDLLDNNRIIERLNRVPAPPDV
The method, boiled down: as §1

Another assay addresses T3, NEK3 (Homo sapiens, UniProt P51956).
T3 sequence (P51956 1-506): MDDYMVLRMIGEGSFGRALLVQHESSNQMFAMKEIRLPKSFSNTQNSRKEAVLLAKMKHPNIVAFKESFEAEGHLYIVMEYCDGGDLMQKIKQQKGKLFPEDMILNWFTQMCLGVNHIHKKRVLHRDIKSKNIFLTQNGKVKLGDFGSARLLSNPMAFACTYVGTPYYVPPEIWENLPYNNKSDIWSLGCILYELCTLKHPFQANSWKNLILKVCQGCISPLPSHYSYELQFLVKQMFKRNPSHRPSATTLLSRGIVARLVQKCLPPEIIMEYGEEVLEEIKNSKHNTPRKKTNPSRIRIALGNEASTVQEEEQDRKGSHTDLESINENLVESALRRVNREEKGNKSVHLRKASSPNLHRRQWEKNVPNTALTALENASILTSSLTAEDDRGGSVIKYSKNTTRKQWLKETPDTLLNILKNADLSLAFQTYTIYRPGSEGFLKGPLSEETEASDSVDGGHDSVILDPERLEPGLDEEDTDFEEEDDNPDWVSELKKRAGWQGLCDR
The method, boiled down:
as §1

Each structure is given as a SMILES string.

On to `CS(=O)(=O)Nc1ccccc1Nc1nc(Nc2cccc(OCCN)c2)ncc1Cl` [CZC31326, N-(2-(2-(3-(2-aminoethoxy)phenylamino)-5-chloropyrimidin-4-ylamino)phenyl)methanesulfonamide], for which the inhibition at 10 µM on PHKg2 stood at 96.6%; on IKKe, 91.4%; at NEK3 it was 97%.

What is called inhibition is how much of the control response was suppressed. A lower inhibition goes with a response near the control.

For the origin of these results see US20120270237A9, “METHODS FOR THE IDENTIFICATION OF KINASE INTERACTING MOLECULES AND FOR THE PURIFICATION OF KINASE PROTEINS” (Cellzone AG, priority 2009, published 2012).
